Laboratory results taken from patent US5756510A, “Benzamide analogs useful as PARP (ADP-ribosyltransferase, ADPRT) DNA repair enzyme inhibitors” (Newcastle University Ventures Limited, priority 1994, dated 1998).
pIC50: −log10 of the molar value.

Target: T1, PARP (Mus musculus, UniProt P11103)
T1 construct: endogenous in cells; host or cells: L1210 murine leukaemia cells, permeabilised by hypotonic buffer and cold shock
Experiment: PARP inhibition assay ([32P]-NAD incorporation into TCA-precipitated poly(ADP-ribose) in permeabilised L1210 cells, oligonucleotide activated)
Type: biochemical, L1210 murine leukaemia cells
Conditions: 10 μM; read-out: % Inhibition (PARP)
Excerpt: In principle, the PARP assay used relies upon activating endogenous PARP (as hereinafter described) in cells containing exogenous [^32 P]-NAD^+ introduced therein by suspending the cells in a solution of [^32 P]-NAD^+ to which they have been rendered permeable in an initial pretreatment step. The poly(ADP-ribose) which is then synthesised by the enzyme can be precipitated by trichloracetic acid (TCA) and the amount of radio-labelled ^32 p incorporated therein measured, e.g. using a scintillation counter, to give a measure of the activity of the PARP under the particular conditions of the experiment. By repeating the experiment following the same procedure, and under the same conditions, in the presence of each compound to be tested the reduction in enzyme activity, representative of the inhibitory effect of the test compound, can then be ascertained from the reduction, if any, of the amount of [^32 P] measured in the TCA precipitated poly(ADP-ribose).
Thus, with a range of different compounds a set of comparative values for inhibitory activity can be obtained.
In practice, L1210 murine leukaemia cells were used as the source of the PARP enzyme after being rendered permeable to exogenous [^32 P]NAD by exposure to hypotonic buffer and cold shock. […] This oligonucleotide sequence snaps back on itself to form a double-stranded molecule with a single blunt end and provides an effective substrate for activation of PARP.
The experimental protocol adopted, in which a synthetic oligonucleotide as mentioned above is introduced as a specific activator of PARP, discriminates between PARP and other mono-ADP-ribosyltransferases in the cells.
The oligonucleotide having the palindromic sequence […], synthesised by conventional means, was vacuum dried and stored as pellets in a freezer. Before use, it was made up to 200 μg/ml in 10 mM Tris/HCl, pH 7.8, with each pellet being dissolved completely in […] of buffer. The solution was then heated to 60° C. in a water bath for 15 minutes, and allowed to cool slowly to ensure correct reannealing. After adding 9.5 ml of buffer, the concentration was checked by measuring the optical density of a diluted sample at 260 nm. The main solution was then diluted to a concentration of 200 μg/ml and stored in 500 μl aliquots in a freezer, ready for use.
The L1210 cells used as the source of the PARP enzyme were maintained as a suspension culture in RPMI medium+10% foetal bovine serum+glutamine and antibiotics (penicillin and streptomycin). HEPES and sodium bicarbonate were also added, and the cells were seeded in 100 ml of medium such that there would be a concentration of approximately 8×10^5 /ml at the time of carrying out an assay.
(§1) The solubility of the compound was then checked by adding a quantity of the DMSO solution to a quantity of the isotonic buffer, in the required final proportions that were to be used in carrying out the assay, and after an interval the solution was examined under a microscope for any signs of crystals forming.
A desired quantity of the cells, ascertained by counting with a haemocytometer, was then centrifuged (1500 rpm in a "Europa" model 24M centrifuge for 5 minutes), the supernatant removed, and the pellets obtained were resuspended in 20 ml Dul A at 4° C. before centrifuging again at 1500 rpm and 4° C. After again removing the supernatant, the cells were resuspended at a concentration of 3×10^7 cells/ml in ice cold hypotonic buffer and left for 30 minutes on ice. Nine volumes were then added of ice cold isotonic buffer, and the cells, now rendered permeable to exogenous NAD^+, were then used within the next hour for carrying out an assay.

T1 sequence (P11103 whole entry): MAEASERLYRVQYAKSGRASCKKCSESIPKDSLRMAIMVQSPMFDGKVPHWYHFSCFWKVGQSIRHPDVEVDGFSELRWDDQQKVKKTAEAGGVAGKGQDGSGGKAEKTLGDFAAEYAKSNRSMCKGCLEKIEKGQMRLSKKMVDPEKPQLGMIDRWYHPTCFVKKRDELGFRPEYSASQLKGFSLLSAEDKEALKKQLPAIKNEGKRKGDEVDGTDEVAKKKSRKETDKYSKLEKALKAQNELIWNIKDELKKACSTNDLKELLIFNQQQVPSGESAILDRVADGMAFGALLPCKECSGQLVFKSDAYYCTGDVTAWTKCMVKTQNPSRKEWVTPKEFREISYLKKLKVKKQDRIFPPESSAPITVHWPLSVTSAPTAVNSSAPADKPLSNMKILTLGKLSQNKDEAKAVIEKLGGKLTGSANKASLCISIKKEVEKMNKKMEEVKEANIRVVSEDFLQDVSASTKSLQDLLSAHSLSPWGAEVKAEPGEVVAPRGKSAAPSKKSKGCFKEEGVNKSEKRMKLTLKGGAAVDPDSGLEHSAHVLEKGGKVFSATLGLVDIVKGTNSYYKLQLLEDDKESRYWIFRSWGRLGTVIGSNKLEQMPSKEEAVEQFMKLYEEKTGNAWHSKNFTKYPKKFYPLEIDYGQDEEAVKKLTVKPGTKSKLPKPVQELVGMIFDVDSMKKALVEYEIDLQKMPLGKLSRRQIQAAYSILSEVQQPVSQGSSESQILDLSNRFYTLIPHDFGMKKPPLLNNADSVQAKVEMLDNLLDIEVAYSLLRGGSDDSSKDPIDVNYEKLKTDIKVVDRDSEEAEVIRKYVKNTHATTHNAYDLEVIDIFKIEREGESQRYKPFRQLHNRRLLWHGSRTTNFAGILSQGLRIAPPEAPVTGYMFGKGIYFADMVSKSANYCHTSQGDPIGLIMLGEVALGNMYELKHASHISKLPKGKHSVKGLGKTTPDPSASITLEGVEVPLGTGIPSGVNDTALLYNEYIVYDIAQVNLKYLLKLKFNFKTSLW

| Compound | inhibition at 10 µM |
| --- | --- |
| NC(=O)c1cccc(OCCCCCCCCn2cnc3c(N)ncnc32)c1 [NU1022, 3-(8-adenos-9-yloctyloxy)benzamide] | 30% |
| NC(=O)c1cccc(OCCCCCCCCCCCCn2cnc3c(N)ncnc32)c1 [NU1029, 3-(12-adenos-9-yldodecyloxy)benzamide] | 26% |
| CC(=O)Nc1ccc(COc2cccc(C(N)=O)c2)cc1 [NU1030, 3-(N-acetyl-4-aminobenzyloxy)benzamide] | 49% |
| NC(=O)c1cccc(OCc2ccc(C(F)(F)F)cc2)c1 [NU1036, 3-(4-Trifluoromethylbenzyloxy)benzamide] | 3% |
| CCCCOc1cccc(C(N)=O)c1 [NU1038, 3-butoxybenzamide] | 23% |

Now from value to compound:

| inhibition at 10 µM | Compound |
| --- | --- |
| 26% | NC(=O)c1cccc(OCCCCCn2cnc3c(Cl)ncnc32)c1 [NU1023, 3-[5-(6-Chloropurin-9-yl)pentyloxy]benzamide] |
| 16% | NC(=O)c1cccc(OCCCCCn2cnc3c(N)ncnc32)c1 [NU1024, 3-(5-Adenos-9-ylpentyloxy)benzamide] |
| 21% | C=CCOc1cccc(C(N)=O)c1 [NU1031, 3-Allyloxybenzamide] |
| 66% | NC(=O)c1cccc2c1OCO2 [NU1034, 2,3-methylenedioxy benzamide] |
| 18% | CCCCCOc1cccc(C(N)=O)c1 [NU1039, 3-pentyloxybenzamide] |
| 30% | NC(=O)c1cccc(OCCc2ccccc2)c1 [NU1048, 3-(Phenethyl)oxybenzamide] |

Same assay, conditions: 30 μM; read-out: % Inhibition (PARP)

| Compound | inhibition at 30 µM |
| --- | --- |
| NC(=O)c1cccc(OCCCCCBr)c1 [NU1019, 3-(5-Bromopentyloxy)benzamide] | 54% |
| NC(=O)c1cccc(OCCCCCCCCCCCCn2cnc3c(N)ncnc32)c1 [NU1029, 3-(12-adenos-9-yldodecyloxy)benzamide] | 51% |
| CC(=O)Nc1ccc(COc2cccc(C(N)=O)c2)cc1 [NU1030, 3-(N-acetyl-4-aminobenzyloxy)benzamide] | 70% |
| NC(=O)c1cccc(OCc2ccc(C(F)(F)F)cc2)c1 [NU1036, 3-(4-Trifluoromethylbenzyloxy)benzamide] | 13% |
| CCCCOc1cccc(C(N)=O)c1 [NU1038, 3-butoxybenzamide] | 50% |

The remaining lines, values ahead:

| inhibition at 30 µM | Compound |
| --- | --- |
| 45% | NC(=O)c1cccc(OCCCCCn2cnc3c(Cl)ncnc32)c1 [NU1023, 3-[5-(6-Chloropurin-9-yl)pentyloxy]benzamide] |
| 42% | NC(=O)c1cccc(OCCCCCn2cnc3c(N)ncnc32)c1 [NU1024, 3-(5-Adenos-9-ylpentyloxy)benzamide] |
| 58% | C=CCOc1cccc(C(N)=O)c1 [NU1031, 3-Allyloxybenzamide] |
| 45% | CCCCCOc1cccc(C(N)=O)c1 [NU1039, 3-pentyloxybenzamide] |
| 50% | NC(=O)c1cccc(OCCc2ccccc2)c1 [NU1048, 3-(Phenethyl)oxybenzamide] |

Same assay, conditions: 100 μM; read-out: % Inhibition (PARP)

| Compound | inhibition at 100 µM |
| --- | --- |
| NC(=O)c1cccc(OCc2ccccc2)c1 [NU1005, 3-benzyloxybenzamide] | 76% |
| NC(=O)c1cccc(OCCCCCBr)c1 [NU1019, 3-(5-Bromopentyloxy)benzamide] | 81% |
| NC(=O)c1cccc(OCCCCCCCCCCCCn2cnc3c(N)ncnc32)c1 [NU1029, 3-(12-adenos-9-yldodecyloxy)benzamide] | 74% |
| CC(=O)Nc1ccc(COc2cccc(C(N)=O)c2)cc1 [NU1030, 3-(N-acetyl-4-aminobenzyloxy)benzamide] | 84% |
| NC(=O)c1cccc(OCc2ccc(C(F)(F)F)cc2)c1 [NU1036, 3-(4-Trifluoromethylbenzyloxy)benzamide] | 10% |
| CCCCOc1cccc(C(N)=O)c1 [NU1038, 3-butoxybenzamide] | 78% |

Other lines, results leading:

| inhibition at 100 µM | Compound |
| --- | --- |
| 71% | NC(=O)c1cccc(OCCCCCn2cnc3c(Cl)ncnc32)c1 [NU1023, 3-[5-(6-Chloropurin-9-yl)pentyloxy]benzamide] |
| 67% | NC(=O)c1cccc(OCCCCCn2cnc3c(N)ncnc32)c1 [NU1024, 3-(5-Adenos-9-ylpentyloxy)benzamide] |
| 80% | C=CCOc1cccc(C(N)=O)c1 [NU1031, 3-Allyloxybenzamide] |
| 94% | NC(=O)c1cccc2c1OCO2 [NU1034, 2,3-methylenedioxy benzamide] |
| 66% | CCCCCOc1cccc(C(N)=O)c1 [NU1039, 3-pentyloxybenzamide] |
| 72% | NC(=O)c1cccc(OCCc2ccccc2)c1 [NU1048, 3-(Phenethyl)oxybenzamide] |

Same assay, conditions: read-out: % Inhibition (PARP), 10 μM

| Compound | inhibition at 10 µM |
| --- | --- |
| NC(=O)c1cccc(OCc2ccccc2)c1 [NU1005, 3-benzyloxybenzamide] | 34% |
| [N-]=[N+]=Nc1ccc(COc2cccc(C(N)=O)c2)cc1 [NU1013, 3-(4-Azidobenzyloxy)benzamide] | 49% |

Same assay, conditions: read-out: % Inhibition (PARP), 30 μM

| Compound | inhibition at 30 µM |
| --- | --- |
| NC(=O)c1cccc(OCc2ccccc2)c1 [NU1005, 3-benzyloxybenzamide] | 60% |
| [N-]=[N+]=Nc1ccc(COc2cccc(C(N)=O)c2)cc1 [NU1013, 3-(4-Azidobenzyloxy)benzamide] | 28% |

Same assay, conditions: read-out: % Inhibition (PARP), 100 μM

| Compound | inhibition at 100 µM |
| --- | --- |
| [N-]=[N+]=Nc1ccc(COc2cccc(C(N)=O)c2)cc1 [NU1013, 3-(4-Azidobenzyloxy)benzamide] | 43% |

Same assay, conditions: unit printed broken, attached to the next cell

| Compound | pIC50 |
| --- | --- |
| NC(=O)c1cccc2c1OCO2 [NU1034, 2,3-methylenedioxy benzamide] | 5.28 |

System: not listed separately
Experiment: solubility check of test compound in assay buffer (DMSO solution added to isotonic buffer, microscope)
Type: physicochemical
Conditions: 10 μM
Excerpt: as §1, with “The compounds being tested were generally made up as a concentrated solution in DMSO (Dimethyl sulphoxide). The” for “The”

| Compound | insolubility at assay concentration |
| --- | --- |
| COC(=O)c1ccc(COc2cccc(C(N)=O)c2)cc1 [NU1041, 3-(4-carboxymethylbenzyloxy)benzamide] | insol. |
| NC(=O)c1cccc(OCc2ccccc2[N+](=O)[O-])c1 [NU1042, 3-(2-Nitrobenzyloxy)benzamide] | insol. |
| CCCCCCCCOc1cccc(C(N)=O)c1 [NU1045, 3-octyloxybenzamide] | insol. |

Same assay, conditions: 30 μM

| Compound | insolubility at assay concentration |
| --- | --- |
| COC(=O)c1ccc(COc2cccc(C(N)=O)c2)cc1 [NU1041, 3-(4-carboxymethylbenzyloxy)benzamide] | insol. |
| NC(=O)c1cccc(OCc2ccccc2[N+](=O)[O-])c1 [NU1042, 3-(2-Nitrobenzyloxy)benzamide] | insol. |
| CCCCCCCCOc1cccc(C(N)=O)c1 [NU1045, 3-octyloxybenzamide] | insol. |

Same assay, conditions: 100 μM

| Compound | insolubility at assay concentration |
| --- | --- |
| COC(=O)c1ccc(COc2cccc(C(N)=O)c2)cc1 [NU1041, 3-(4-carboxymethylbenzyloxy)benzamide] | insol. |
| NC(=O)c1cccc(OCc2ccccc2[N+](=O)[O-])c1 [NU1042, 3-(2-Nitrobenzyloxy)benzamide] | insol. |
| CCCCCCCCOc1cccc(C(N)=O)c1 [NU1045, 3-octyloxybenzamide] | insol. |
